Columns and labels:
Bel-7402 [1] = assay: Percentage of growth inhibition of BEL-7402 cells treated for 48 hr at 10E-4 M/L and incubated with 5 g/L MTT for 4 h.; assay type: functional, Homo sapiens; settings: for inhibition: Homo sapiens
HXO-RB44 cell line [2] = assay: Percentage of growth inhibition of HXO-RB44 cells treated for 48 hr at 10E-6 M/L and incubated with 5 g/L MTT for 4 h.; assay type: functional, Homo sapiens; settings: for inhibition: Homo sapiens
HXO-RB44 cell line [3] = assay: Percentage of growth inhibition of HXO-RB44 cells treated for 48 hr at 10E-5 M/L and incubated with 5 g/L MTT for 4 h.; assay type: functional, Homo sapiens; settings: for inhibition: Homo sapiens
Bel-7402 [4] = assay: Percentage of growth inhibition of BEL-7402 cells treated for 48 hr at 10E-3 M/L and incubated with 5 g/L MTT for 4 h.; assay type: functional, Homo sapiens; settings: for inhibition: Homo sapiens
HXO-RB44 cell line [5] = assay: Percentage of growth inhibition of HXO-RB44 cells treated for 48 hr at 10E-4 M/L and incubated with 5 g/L MTT for 4 h.; assay type: functional, Homo sapiens; settings: for inhibition: Homo sapiens
Bel-7402 [6] = assay: Percentage of growth inhibition of BEL-7402 cells treated for 48 hr at 10E-5 M/L and incubated with 5 g/L MTT for 4 h.; assay type: functional, cell-based; settings: Homo sapiens

| Compound | Inhibition (Bel-7402 [1]) [%] | Inhibition (HXO-RB44 cell line [2]) [%] | Inhibition (HXO-RB44 cell line [3]) [%] | Inhibition (Bel-7402 [4]) [%] | Inhibition (HXO-RB44 cell line [5]) [%] | inhibition (Bel-7402 [1]) [%] | inhibition (HXO-RB44 cell line [2]) [%] | inhibition (HXO-RB44 cell line [3]) [%] | inhibition (Bel-7402 [4]) [%] | inhibition (Bel-7402 [6]) [%] | inhibition (HXO-RB44 cell line [5]) [%] |
| --- | --- | --- | --- | --- | --- | --- | --- | --- | --- | --- | --- |
| OC1CNCCNCCNC1 | 16 | 1 | 3 | 34 | 3 | – | – | – | – | – | – |
| COBALT (II) ION | – | – | – | – | – | 5 | 3 | 3 | 79 | 0 | 7 |
| COPPER | – | – | – | – | – | 3 | 0 | 3 | 81 | 2 | 5 |

From ChEMBL document CHEMBL1147515, “Nickel(II) and cobalt(II) complexes of hydroxyl-substituted triazamacrocyclic ligand as potential antitumor agents” (2004)
